Assay results: the supplement of paper PMC10307832

Assays:
Test in all cases: relative viability (nuclei count vs DMSO), 5 days (fraction); higher = more cells survive
[1] = compound: O=C(/C=C/c1cccnc1)NCCCCC1CCN(C(=O)c2ccccc2)CC1 [Daporinad] + COc1cccc2cc(-c3nc([C@H]4CC[C@H](C(=O)O)CC4)n4ncnc(N)c34)[nH]c12 [OSI-027] (partner 0.5 µM)
How it was run: (§1)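 For relative viability, nuclei counts in treated wells were divided by those in vehicle wells. Lung cancer cell lines had been pin-tool dosed in 1536-well plates the day after seeding and cultured for 5 days, then fixed and stained in one step (final 0.05% Triton X-100, 1% formaldehyde, 1 ug/ml Hoechst) and imaged at 4×. Doses were one drug alone or a fixed anchor-drug dose plus five library-drug doses (not always all listed) in √10 steps, and values are duplicate-plate medians.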

[2] = compound: O=C(/C=C/c1cccnc1)NCCCCC1CCN(C(=O)c2ccccc2)CC1 [Daporinad] + CS(=O)(=O)CCNCc1ccc(-c2ccc3ncnc(Nc4ccc(OCc5cccc(F)c5)c(Cl)c4)c3c2)o1 [Lapatinib] (partner 2 µM)
How it was run: as §1

[3] = compound: O=C(/C=C/c1cccnc1)NCCCCC1CCN(C(=O)c2ccccc2)CC1 [Daporinad] + Nc1nc2[nH]cc(CCc3ccc(C(=O)N[C@@H](CCC(=O)O)C(=O)O)cc3)c2c(=O)[nH]1 [Pemetrexed] (partner 0.2 µM)
How it was run: as §1

[4] = compound: COc1cc(Nc2ncc(F)c(Nc3ccc4c(n3)NC(=O)C(C)(C)O4)n2)cc(OC)c1OC [R406] + COc1cc2c(Oc3ccc(NC(=O)C4(C(=O)Nc5ccc(F)cc5)CC4)cc3F)ccnc2cc1OCCCN1CCOCC1 [Foretinib] (partner 0.25 µM)
How it was run: as §1

Row | Cell Line | relative viability ([1]; first compound 0.0005 µM) | relative viability ([1]; first compound 0.001581 µM) | relative viability ([1]; first compound 0.005 µM) | relative viability ([1]; first compound 0.01581 µM) | relative viability ([2]; first compound 0.0005 µM) | relative viability ([2]; first compound 0.001581 µM) | relative viability ([2]; first compound 0.005 µM) | relative viability ([2]; first compound 0.01581 µM) | relative viability ([3]; first compound 0.0005 µM) | relative viability ([3]; first compound 0.001581 µM) | relative viability ([3]; first compound 0.005 µM) | relative viability ([3]; first compound 0.01581 µM) | relative viability ([4]; first compound 0.08 µM) | relative viability ([4]; first compound 0.253 µM) | relative viability ([4]; first compound 0.8 µM) | relative viability ([4]; first compound 2.53 µM) | relative viability ([4]; first compound 8 µM)
1 | EKVX | 0.692 | 0.738 | 0.683 | 0.806 | 0.169 | 0.223 | 0.231 | 0.251 | 0.344 | 0.468 | 0.389 | 0.343 | 0.79 | 1 | 0.821 | 0.567 | 0.609
2 | EMC-BAC-2 | 0.393 | 0.435 | 0.326 | 0.202 | 0.93 | 0.885 | 0.846 | 0.336 | 0.428 | 0.482 | 0.421 | 0.388 | 0.98 | 1.05 | 1.11 | 0.385 | 0.579
3 | EPLC-272H | 0.243 | 0.298 | 0.316 | 0.365 | 0.772 | 1.18 | 0.936 | 1.29 | 0.327 | 0.339 | 0.312 | 0.413 | 0.425 | 0.617 | 0.792 | 0.304 | 0.126
4 | H3255 | 0.476 | 0.596 | 0.587 | 0.633 | 0.24 | 0.255 | 0.247 | 0.235 | 0.573 | 0.561 | 0.616 | 0.638 | 0.868 |  | 0.872 | 0.878 | 0.673
5 | HARA | 0.488 | 0.56 | 0.55 | 0.355 | 0.758 | 1.05 | 0.745 | 0.547 | 0.24 | 0.258 | 0.227 | 0.276 | 0.867 | 1.04 | 1.05 | 0.751 | 0.218
6 | HCC-15 | 0.669 | 0.807 | 0.789 | 0.779 | 0.864 | 0.911 | 0.859 | 0.869 | 0.225 | 0.22 | 0.237 | 0.199 | 1.07 | 1.12 | 1.19 | 1.01 | 0.643
7 | HCC-44 | 0.481 | 0.608 | 0.462 | 0.639 | 1.06 | 1.08 | 1.07 | 0.937 | 0.623 | 0.593 | 0.677 | 0.765 |  |  |  |  | 
8 | HCC-78 | 0.378 |  | 0.383 | 0.368 | 0.749 | 0.705 | 0.854 | 1.18 | 0.869 | 0.897 | 0.798 | 0.874 | 0.562 | 0.602 | 0.642 | 0.57 | 0.56
9 | HCC-366 | 0.961 | 0.907 | 1.22 | 1.03 | 1.06 | 1.02 | 1.08 | 1.02 | 0.187 |  | 0.152 | 0.104 | 0.957 | 0.933 | 0.956 | 0.847 | 0.137
10 | HCC-827 | 0.78 | 0.865 | 0.881 | 0.74 | 0.454 | 0.19 | 0.212 | 0.191 | 0.295 | 0.268 | 0.281 | 0.256 | 0.991 | 1.08 | 1.05 | 0.81 | 0.157
